From US20170298056A1, “SMALL MOLECULE INHIBITORS OF HIV-1 ENTRY AND METHODS OF USE THEREOF” (Dana-Farber Cancer Institute, Inc., priority 2014, published 2017)

Key:
[1] = tested on: HIV-1YU2; experiment: Viral infection assay, YU2 Env (wild type and mutants); type: cell-based; settings: for Fold change: mutant/wild-type IC50
Text: HIV-1 Env mutants. Mutations were introduced into the plasmid expressing the fulllength HIV-1YU2 or HIV-1JR-FL Envs using the QuikChange II site-directed mutagenesis protocol or the QuikChange multi site-directed mutagenesis kit (Stratagene). The presence of the desired mutations was confirmed by DNA sequencing. All HIV-1 Env residues are numbered based on alignment with the HXBc2 prototypic sequence, according to current convention.
Production of recombinant HIV-1 expressing luciferase. […] After 48 hours, the supernatant was collected, buffered with 50 mM Hepes pH 7.4 (final concentration) and centrifuged for 5 minutes at 750×g and 4° C. The virus-containing supernatant was used directly or frozen at −80° C.
Viral infection assay. Each test compound was serially diluted in DMSO in a 96-well B&W isoplate (PerkinElmer, Boston, Mass.) using an HP D300 Digital Dispenser, to a final volume of 450 nl. DMSO was used as a control. Viruses pseudotyped with a specific Env were added to each well and incubated briefly at room temperature. Cf2Th-CD4/CCR5 cells were detached with StemPro Accutase Cell Dissociation Reagent (Invitrogen, cat #A11105-01), washed once, and 5000 cells were added to each well. […] Following incubation, the medium was aspirated and cells were lysed with 30 μl of Passive Lysis Buffer (Promega, cat #E1941). The activity of the firefly luciferase, which was used as a reporter protein in the system, was measured with a Centro LB 960 luminometer (Berthold Technologies, Oak Ridge, Tenn.). One hundred microliters of assay buffer (15 mM MgSO4, 15 mM KH2PO4/K2HPO4 pH 7.8, 1 mM ATP and 1 mM DTT) was injected to each well, followed by a 50 μl injection of 1 mM Dluciferin potassium salt (BD Pharmingen, San Jose, Calif.); luminescence was measured for 2 sec. Infection of PBMC was done as above, but 20,000-40,000 cells/well and viruses concentrated by ultracentrifugation were used. After four hours of incubation with viruses, the cells were centrifuged at 200×g for 6 minutes at 4° C., resuspended in 100 μl RPMI-PBMC medium and incubated at 37° C. for an additional 36-40 hours (total 40-44 hours). Supernatant was removed after centrifugation at 400×g for 5 minutes and cells were processed to detect luciferase activity, as described above.

[2] = tested on: HIV-1JR-FL E168K+N188AΔCT Env trimer; experiment: PG9 antibody binding to cell-surface Env trimer (flow cytometry)
Procedure: Flow cytometry. […] After 48-72 hours, cells were detached with 5 mM EDTA/PBS and between 0.5-1 million cells were briefly incubated with various concentrations of 18A and then with or without the indicated concentrations of sCD4. C34-Ig (at a final concentration of 20 μg/ml) or a specified antibody (at final concentration of 1 μg/ml) was added to the cells. […] Cells were washed twice and analyzed with a BD FACSCanto II flow cytometer (BD Biosciences). For analysis of resistant mutants (FIG. 5e-g), the measurements were normalized for the level of sCD4 binding of each mutant, and the response of each mutant was further normalized to that of the wild-type HIV-1JR-FL E168K+N188AΔCT Env (herein designated WTKA). […] The sCD4 IC50/sCD4 binding ratio (FIGS. 4c and e) was calculated as follows. Binding of sCD4 to different envelope mutants was measured by flow cytometry and normalized first to 2G12 binding to account for potentially different Env expression levels, and then to sCD4 binding to the wild-type HIV-1JR-FL Env. The IC50 of sCD4 for inhibition of virus infection by each mutant Env was divided by the normalized sCD4 binding to Env-expressing cells to calculate the sCD4 IC50/sCD4 binding value.

With O=C(N/N=C/c1ccc(O)cc1)Nc1cccc2nsnc12 [Compound 18A] the IC50 ([1]; YU2 Env D113A) was 6 ± 1.4 µM, the Fold change ([1]; YU2 Env D113A) was 0.7 and the IC50 ([1]; YU2 Env D589L) was 12.1 ± 1.5 µM. For the same compound, the Fold change ([1]; YU2 Env D589L) was 1.4, the IC50 ([1]; YU2 Env E370A) was 2.3 ± 0.8 µM and the Fold change ([1]; YU2 Env E370A) was 0.3. For the same compound, the IC50 ([1]; YU2 Env E429K) was 9 ± 1.4 µM, the Fold change ([1]; YU2 Env E429K) was 1.1 and the IC50 ([1]; YU2 Env H66A) was 8 ± 0.9 µM. The Fold change ([1]; YU2 Env H66A) was 1, the IC50 ([1]; YU2 Env H66N) was 4.6 ± 0.5 µM and the Fold change ([1]; YU2 Env H66N) was 0.5. The IC50 ([1]; YU2 Env I108A) was 6.1 ± 0.7 µM, the Fold change ([1]; YU2 Env I108A) was 0.7 and the IC50 ([1]; YU2 Env I109W) was 2.9 ± 0.4 µM. The Fold change ([1]; YU2 Env I109W) was 0.3, the IC50 ([1]; YU2 Env I285A) was 6.3 ± 1.5 µM and the Fold change ([1]; YU2 Env I285A) was 0.7. The IC50 ([1]; YU2 Env I309A) was 4.2 ± 1.3 µM, the Fold change ([1]; YU2 Env I309A) was 0.5 and the IC50 ([1]; YU2 Env I371A) was 6.5 ± 0.9 µM. The Fold change ([1]; YU2 Env I371A) was 0.8, the IC50 ([1]; YU2 Env I420C) was 2.1 ± 0.4 µM and the Fold change ([1]; YU2 Env I420C) was 0.2. It also gave an IC50 ([1]; YU2 Env I420S) of 4.8 ± 0.8 µM, a Fold change ([1]; YU2 Env I420S) of 0.6 and an IC50 ([1]; YU2 Env I423R) of 2.4 ± 0.4 µM. It also gave a Fold change ([1]; YU2 Env I423R) of 0.3, an IC50 ([1]; YU2 Env K117W) of 6.5 ± 1.1 µM and a Fold change ([1]; YU2 Env K117W) of 0.8. It also gave an IC50 ([1]; YU2 Env L111A) of 10.4 ± 1.6 µM, a Fold change ([1]; YU2 Env L111A) of 1.2 and an IC50 ([1]; YU2 Env L260A) of 3.4 ± 1.5 µM. For the same compound, the Fold change ([1]; YU2 Env L260A) was 0.4, the IC50 ([1]; YU2 Env L261A) was 4.9 ± 1 µM and the Fold change ([1]; YU2 Env L261A) was 0.6. It also gave an IC50 ([1]; YU2 Env L317A) of 10.2 ± 1.4 µM, a Fold change ([1]; YU2 Env L317A) of 1.2 and an IC50 ([1]; YU2 Env M475A (associated with resistance to BMS-806)) of 10.2 ± 2.6 µM. It also gave a Fold change ([1]; YU2 Env M475A) of 1.2, an IC50 ([1]; YU2 Env N377A) of 3.3 ± 0.6 µM and a Fold change ([1]; YU2 Env N377A) of 0.4. For the same compound, the IC50 ([1]; YU2 Env P212A) was 10.2 ± 1.5 µM, the Fold change ([1]; YU2 Env P212A) was 1.2 and the IC50 ([1]; YU2 Env Q114N) was 14.8 ± 2.1 µM. It also gave a Fold change ([1]; YU2 Env Q114N) of 1.7, an IC50 ([1]; YU2 Env S110A) of 7.3 ± 1.6 µM and a Fold change ([1]; YU2 Env S110A) of 0.9. It also gave an IC50 ([1]; YU2 Env S110N) of 5.9 ± 1.8 µM, a Fold change ([1]; YU2 Env S110N) of 0.7 and an IC50 ([1]; YU2 Env S375A) of 10 ± 1.3 µM. The Fold change ([1]; YU2 Env S375A) was 1.2, the IC50 ([1]; YU2 Env S375W (associated with resistance to BMS-806)) was 14.6 ± 2.8 µM and the Fold change ([1]; YU2 Env S375W) was 1.7. It also gave an IC50 ([1]; YU2 Env T71A) of 7.1 ± 1.4 µM, a Fold change ([1]; YU2 Env T71A) of 0.8 and an IC50 ([1]; YU2 Env T257A) of 13.2 ± 1.1 µM. For the same compound, the Fold change ([1]; YU2 Env T257A) was 1.5, the IC50 ([1]; YU2 Env T257S) was 6.9 ± 0.8 µM and the Fold change ([1]; YU2 Env T257S) was 0.8. The IC50 ([1]; YU2 Env V255A) was 14 ± 1.2 µM, the Fold change ([1]; YU2 Env V255A) was 1.6 and the IC50 ([1]; YU2 Env V255G) was 7.9 ± 1.7 µM. For the same compound, the Fold change ([1]; YU2 Env V255G) was 0.9, the IC50 ([1]; YU2 Env V255I) was 5.4 ± 1.3 µM and the Fold change ([1]; YU2 Env V255I) was 0.6. The IC50 ([1]; YU2 Env V255W) was 3.6 ± 1.3 µM, the Fold change ([1]; YU2 Env V255W) was 0.4 and the IC50 ([1]; YU2 Env V430A) was 5.9 ± 0.6 µM. It also gave a Fold change ([1]; YU2 Env V430A) of 0.7, an IC50 ([1]; YU2 Env V430S) of 2.9 ± 0.3 µM and a Fold change ([1]; YU2 Env V430S) of 0.3. For the same compound, the IC50 ([1]; YU2 Env W69L) was 3.5 ± 0.5 µM, the Fold change ([1]; YU2 Env W69L + S375W) was 1.7 and the Fold change ([1]; YU2 Env W69L) was 0.4. The IC50 ([1]; YU2 Env W479A) was 1.3 ± 0.2 µM, the Fold change ([1]; YU2 Env W479A) was 0.2 and the IC50 ([1]; YU2 Env W596M) was 9.4 ± 1.4 µM. For the same compound, the Fold change ([1]; YU2 Env W596M) was 1.1, the IC50 ([1]; YU2 Env double mutant W69L + S375W) was 15 ± 2.5 µM and the IC50 ([1]; YU2 Env wild type) was 8.6 ± 1.4 µM. The Fold change ([1]; YU2 Env wild type) was 1, the PG9 binding ([2]; 18A added prior to sCD4 incubation, 37.6% without sCD4, 6.6% with sCD4 alone) was 24.1% and the “basal level of PG9 binding” value ([2]; absence of sCD4) was “did not affect”.
